Data on 16 compounds can be found in patent US20040086901A1, “Database for analyzing gene function and method of analyzing gene function by dspa” (priority 2000, published 2004).

Molecules are shown by their SMILES.

Common to all, as to format: cell-based, mouse
Test [1] relates to NIH3T3 cells overexpressing T.Tn. The test can be described thus: MTT cell viability, T.Tn overexpressing cells vs parental line. The following applies: T.Tn high-expressing cells / parental cell line, 3 to 4 days. As to the method: (§1) With regard to the function-known genes, the genes shown in the left column of Table 2 were used. With regard to the drugs, those shown in Table 1 were dissolved in DMSO to an extent of 100-fold of the maximum concentration for the search of the drugs and used. With regard to the cells, incubated NIH3T3 or ras-NIH3T3 cells were used.
(§2) Full-length cDNA of each function-known genes was incorporated into an expression vector (pRc-CMV, etc.) and transfected into NIH3T3 cells by a common method. Transformed cells were isolated using the resistance to G-418 as an index and the expression of the transfected gene in each cell was investigated by Western blotting method to select a highly expressing line.
(§3) Cell viabilities were measured according to the following procedures.
(§4) 1) From the 2nd to the 11th rows of a 96-well plate were filled with DMEM (50 μl). The 12th row was filled with 100 μl of DMEM.
(§5) 2) The 1st row was filled with 98 μl of DMEM.
(§6) 3) Drugs (2 μl each) were added into the 1st row.
(§7) 4) Continuous double-dilution was conducted from the 1st to the 9th rows. Fifty μl were taken out from the 9th row and discarded. The plate was preserved in a CO2 incubator.
(§8) 5) Cells (each high-expressing cells and the parental cell line) were detached from the medium using a trypsin solution, suspended in 10% CS-DMEM and transferred to a test tube and cell numbers (cell/ml) were counted.
(§9) 6) The cells were diluted to a concentration of 1×10^5 cells/ml, and 50 μl of the cell suspension were added to the 1st to the 11th rows of the plate followed by gently stirring.
(§10) 7) The plate was transferred to the CO2 incubator and incubated for 3 to 4 days.
(§11) 8) MTT (5 mg/ml in PBS) (10 μl) was added to the 1st to the 12th rows of the plate and incubated in the CO2 incubator at 37° C. for 4 hours.
(§12) 9) A reaction stop solution (0.04N HCl in isopropanol) (150 μl) was added followed by mixing well and being allowed to stand at room temperature for about 2 hours.
(§13) 10) Coloration of formazan which was a metabolite of the MTT dye was measured using a microplate reader. The measurement wavelength was 574 nm and the reference wavelength was 655 nm. The 10th and the 11th rows of the plate were 100% controls and the 12th row was a 0% control.
(§14) As an index for the sensitivity of highly gene-expressing cells and the parental cell line to various drugs, each of the IC40 values thereof was specified and ratios of the IC40 values were calculated. […] After that, logarithmic values of ratios of IC40 values were calculated from each gene.

Test [2] has as its system NIH3T3 cells overexpressing ERK-DN. Kind of test: MTT cell viability, ERK-DN overexpressing cells vs parental line. To be noted: ERK-DN high-expressing cells / parental cell line, 3 to 4 days. The protocol:
as §1, §2, §3, §4, §5, §6, §7, §8, §9, §10, §11, §12, §13, §14

For test [3], the system named is NIH3T3 cells overexpressing CaMKIIa-Active. Kind of test: MTT cell viability, CaMKIIa-Active overexpressing cells vs parental line. The following applies: CaMKIIa-Active high-expressing cells / parental cell line, 3 to 4 days. The protocol: as §1, §2, §3, §4, §5, §6, §7, §8, §9, §10, §11, §12, §13
(§15) As an index for the sensitivity of highly gene-expressing cells and the parental cell line to various drugs, each of the IC40 values thereof was specified and ratios of the IC40 values were calculated. FIG. 2 and FIG. 3 are the examples where ratios of IC40 values were calculated from a curve showing the dependency on the concentration of the chemical versus the viability. After that, logarithmic values of ratios of IC40 values were calculated from each gene.

Test [4] relates to NIH3T3 cells overexpressing Cip-1. The test can be described thus: MTT cell viability, Cip-1 overexpressing cells vs parental line. To be noted: Cip-1 high-expressing cells / parental cell line, 3 to 4 days. The protocol:
as §1, §2, §3, §4, §5, §6, §7, §8, §9, §10, §11, §12, §13, §14

The subject of test [5] is NIH3T3 cells overexpressing Gluco-corticoid-R. Kind of test: MTT cell viability, Gluco-corticoid-R overexpressing cells vs parental line. The following applies: Gluco-corticoid-R high-expressing cells / parental cell line, 3 to 4 days. As to the method: as §1, §2, §3, §4, §5, §6, §7, §8, §9, §10, §11, §12, §13, §14
In test [6] the test system is NIH3T3 cells overexpressing p53(wt). Kind of test: MTT cell viability, p53(wt) overexpressing cells vs parental line. To be noted: p53(wt) high-expressing cells / parental cell line, 3 to 4 days. As to the method: as §1, §2, §3, §4, §5, §6, §7, §8, §9, §10, §11, §12, §13, §14
Test [7] relates to NIH3T3 cells overexpressing HSP9O. The test can be described thus: MTT cell viability, HSP9O overexpressing cells vs parental line. The following applies: HSP9O high-expressing cells / parental cell line, 3 to 4 days. As to the method: as §1, §2, §3, §4, §5, §6, §7, §8, §9, §10, §11, §12, §13, §15

On to `C=CC1=C(C)c2cc3[n-]c(cc4nc(cc5[n-]c(cc1n2)c(C)c5CCC(=O)O)C(CCC(=O)O)=C4C)c(C)c3C=C.[Cl-].[Cl-].[Sn+4]` [SnPP], for which the “logarithmic value of ratio of IC40 values” is recorded as 0.00 in test [1]; 0.00 in test [2]; 0.30 in test [3]; −0.66 in test [4]; 0.00 in test [5]; −0.18 in test [6].
On to `O=[As]O` [NaAsO2, sodium arsenite], for which the “logarithmic value of ratio of IC40 values” in test [1] is recorded as −0.05; in test [2] it was 0.16; in test [3], 0.02; in test [7], 0.10; in test [4] it was 0.30; in test [5], 0.16. Further, in test [6], the “logarithmic value of ratio of IC40 values” came out at 0.20.
On to `O=c1c(-c2ccc(O)cc2)coc2cc(O)cc(O)c12` [Genistein, genistein], for which the “logarithmic value of ratio of IC40 values” was −0.25 in test [1]; 0.00 in test [2]; 0.23 in test [3]; 0.41 in test [7]; 0.02 in test [5]; 0.26 in test [6].
Consider `COc1ccc2c(c1)CC[C@@H]1[C@@H]2CC[C@]2(C)[C@@H](NCCCCCCN3C(=O)C=CC3=O)CC[C@@H]12` [U73122], for which the “logarithmic value of ratio of IC40 values” in test [1] was −0.26; in test [2], 0.00; in test [3], 0.00; in test [7] it was 0.18; in test [4] it was 0.08; in test [5], 0.05. Also, the “logarithmic value of ratio of IC40 values” in test [6] was 0.11.
As to `C/C=C(/C)C(=O)O[C@H]1C(C)=C2[C@H]([C@@H]1OC(=O)CCCCCCC)[C@@](C)(OC(C)=O)C[C@H](OC(=O)CCC)[C@@]1(O)[C@H]2OC(=O)[C@@]1(C)O` [Thapsigargin, thapsigargin], the “logarithmic value of ratio of IC40 values” in test [1] is on record as 0.32; in test [2], −0.15; in test [3], 0.03; in test [7], 0.09; in test [4], 0.04; in test [5], 0.20. Besides, in test [6], the “logarithmic value of ratio of IC40 values” is −0.05.
Take `CN[C@@H]1C[C@H]2O[C@@](C)([C@@H]1OC)n1c3ccccc3c3c4c(c5c6ccccc6n2c5c31)C(=O)NC4` [Staurosporine]: the “logarithmic value of ratio of IC40 values” is −0.04 in test [3], 0.22 in test [7], −0.28 in test [5] and 0.07 in test [6].
As for `C=C[C@]1(C)CC[C@@H](C(=C)C)C[C@H]1C(=C)C` [b-elemene, β-elemene], the “logarithmic value of ratio of IC40 values” in test [1] is −0.14; in test [2], 0.33; in test [7], 0.05; in test [4], 0.00; in test [5], 0.00; in test [6] it was 0.00.
As to `CC(C)(C)C(=O)Oc1ccc(S(=O)(=O)Nc2ccccc2C(=O)NCC(=O)O)cc1` [compound 5046], the “logarithmic value of ratio of IC40 values” in test [3] is 0.35; in test [7], 0.52; in test [4] it was −0.14.
For `C[C@@H]1O[C@@H](O[C@H]2C[C@@H](O)[C@]3(CO)[C@H]4[C@H](O)C[C@]5(C)[C@@H](C6=CC(=O)OC6)CC[C@]5(O)[C@@H]4CC[C@]3(O)C2)[C@H](O)[C@H](O)[C@H]1O` [Ouabain, ouabain], the “logarithmic value of ratio of IC40 values” in test [1] is reported as 0.28; in test [2] it was 0.48; in test [3] it was 0.60; in test [7], 0.92; in test [4], 0.16; in test [5], 0.04.
With `CN(C)CCCn1cc(C2=C(c3c[nH]c4ccccc34)C(=O)NC2=O)c2ccccc21` [GF109203X], the “logarithmic value of ratio of IC40 values” in test [1] is −0.10; in test [2], 0.48; in test [4] it was 0.30; in test [5], 0.27; in test [6] it was 0.62.
On to `C[C@@H]1C[C@@H]([C@H](O)CC2CC(=O)NC(=O)C2)C(=O)[C@@H](C)C1` [CHX, cycloheximide], for which the “logarithmic value of ratio of IC40 values” in test [1] is given as 0.00; in test [2], 0.08; in test [3], −0.09; in test [7], 0.07; in test [4], 1.77; in test [6] it was 0.85.
For the compound `C=C[C@@]1(C)CC(=O)[C@]2(O)[C@@]3(C)[C@@H](O)CCC(C)(C)[C@@H]3[C@H](O)[C@H](OC(C)=O)[C@@]2(C)O1` [Forskolin, forskolin], the “logarithmic value of ratio of IC40 values” was determined as 0.53 in test [1]; 0.08 in test [2]; 0.43 in test [3]; 0.94 in test [7]; 0.33 in test [5]; 0.98 in test [6].
For the compound `O=CN/C=C/c1cc(O)ccc1O` [Erbstatin, erbstatin], the “logarithmic value of ratio of IC40 values” is on record as 0.48 in test [1]; 0.13 in test [2]; 0.21 in test [3]; 0.26 in test [7]; 0.06 in test [5]; 0.17 in test [6].
As to `Nc1nc2nc[nH]c2c(=S)[nH]1` [6-TG, 6-thioguanine], the “logarithmic value of ratio of IC40 values” is 0.00 in test [1]; 0.62 in test [3]; 0.57 in test [7]; 0.47 in test [4]; 0.09 in test [5].
Take `COC(=O)[C@@]1(O)C[C@H]2O[C@]1(C)n1c3ccccc3c3c4c(c5c6ccccc6n2c5c31)C(=O)NC4` [K252a]: the “logarithmic value of ratio of IC40 values” in test [1] turned out to be 0.00; in test [2], 0.05; in test [3], 0.10; in test [7], 0.56; in test [5], 0.13; in test [6], 0.05.
For the compound `COC[C@H]1OC(=O)c2coc3c2[C@@]1(C)C1=C(C3=O)[C@@H]2CCC(=O)[C@@]2(C)C[C@H]1OC(C)=O` [Wortmannin, wortmannin], the “logarithmic value of ratio of IC40 values” in test [1] is listed as 0.36; in test [2], −0.11; in test [3], 0.18; in test [7] it was 0.18; in test [5] it was 0.09; in test [6], 0.40.
